Read-outs that look alike come from different tables or passages of the source.
Assays:
[1] = biological target: T1, NAMPT (Homo sapiens, UniProt P43490); test: NAMPT Activity Assay (Abcam #ab221819); type: biochemical; details: purified NAMPT, two-step reaction, OD450 nm; percent inhibition vs no drug; compound concentration not stated
T1 construct: purchased Abcam ab221819

[2] = test system: MV-4-11 cells; test: Cell viability in MV-4-11 cells (CellTiter Glo2); type: cell-based; details: Homo sapiens, MV4-11, 96 h, 8-point dose response, 4 days
Protocol: Approximately 10,000 MV-4-11 cells per well of a 96-well plate were treated with DMSO (no drug control) or each compound in Tables E1 and E2 in an 8-point dose response for 4 days, Cell viability was measured using CellTiter Glo2. The ICse of each compound was determined using CDD Vault.

[3] = CellTiter Glo2 (Table E2), read-out: MV-4-11 Cell Viability, MV-4-11 IC50
[4] = CellTiter Glo2 (Table E1), read-out: MV-4-11 IC50

T1 sequence (P43490 whole entry): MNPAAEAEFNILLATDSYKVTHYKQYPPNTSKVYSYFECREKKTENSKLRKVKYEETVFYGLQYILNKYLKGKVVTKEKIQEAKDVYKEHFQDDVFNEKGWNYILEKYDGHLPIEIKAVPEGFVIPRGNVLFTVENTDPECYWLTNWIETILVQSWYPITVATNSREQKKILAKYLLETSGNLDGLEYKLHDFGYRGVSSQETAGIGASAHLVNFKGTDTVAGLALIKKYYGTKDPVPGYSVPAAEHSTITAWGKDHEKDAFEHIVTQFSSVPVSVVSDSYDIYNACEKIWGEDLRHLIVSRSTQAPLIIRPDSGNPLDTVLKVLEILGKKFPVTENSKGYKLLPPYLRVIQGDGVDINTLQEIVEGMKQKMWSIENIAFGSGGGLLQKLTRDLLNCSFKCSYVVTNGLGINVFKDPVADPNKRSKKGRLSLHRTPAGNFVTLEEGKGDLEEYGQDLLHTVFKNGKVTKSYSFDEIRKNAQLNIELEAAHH

| SMILES | NAMPT Inhibition Code [1] | IC50 [2, 3] [nM] | IC50 [2, 4] [nM] |
| --- | --- | --- | --- |
| CCN(C(C)=O)c1ccc(-c2ccc(C(=O)NCc3cccnc3)cn2)cc1C [Compound I-430, 6-[4-[acetyl(ethyl)amino]-3-methyl-phenyl]-N-(3-pyridylmethyl)pyridine-3-carboxamide] | B (B = ≥33 to <66% inhibition) |  | 267 |
| CCC(=O)N(C)c1ccc(-c2ccc(C(=O)NCc3ccc(OC)nc3)cn2)cc1 [Compound I-397, N-[(6-methoxy-3-pyridyl)methyl]-6-[4-[methyl(propanoyl)amino]phenyl]pyridine-3-carboxamide] | B (B = ≥33 to <66% inhibition) |  | 13800 |
| CCC(=O)N(C)c1ccc(-c2ccc(C(=O)NCc3cccnc3Cl)cn2)cc1 [Compound I-395, N-[(2-chloro-3-pyridyl)methyl]-6-[4-[methyl(propanoyl)amino]phenyl]pyridine-3-carboxamide] | A (A = <33% inhibition) |  | 6110 |
| CCc1cc(-c2ccc(C(=O)NCc3cccnc3C)cn2)ccc1N(C)C(C)=O [Compound I-445, 6-[4-[acetyl(methyl)amino]-3-ethyl-phenyl]-N-[(2-methyl-3-pyridyl)methyl]pyridine-3-carboxamide] | A (A = <33% inhibition) |  | 3690 |
| CCOC(=O)N(C)c1ccc(-c2ccc(C(=O)NCc3cccnc3)cn2)cc1 [Compound I-389, ethyl N-methyl-N-[4-[5-(3-pyridylmethylcarbamoyl)-2-pyridyl]phenyl]carbamate] | A (A = <33% inhibition) |  | 3170 |

More lines, now with the values ahead:

| NAMPT Inhibition Code [1] | IC50 [2, 3] [nM] | IC50 [2, 4] [nM] | SMILES |
| --- | --- | --- | --- |
| B (B = ≥33 to <66% inhibition) | 1580 |  | CC(=O)N(CC(F)F)c1ccc(-c2ccc(C(=O)NCc3cccnc3)cn2)cc1 [Compound I-631, 6-[4-[Acetyl(2,2-difluoroethyl)amino]phenyl]-N-(3-pyridylmethyl)pyridine-3-carboxamide] |
| B (B = ≥33 to <66% inhibition) | 350 |  | CC(=O)N(CC1CC1)c1ccc(-c2ccc(C(=O)NCc3ccnc(N)c3)cn2)cc1Cl [Compound I-674, 6-[4-[Acetyl(cyclopropylmethyl)amino]-3-chloro-phenyl]-N-[(2-amino-4-pyridyl)methyl]pyridine-3-carboxamide] |
| C (C = ≥66% inhibition) | 36 |  | COC(=O)c1cc(-c2ccc(C(=O)NCc3cccnc3)cn2)ccc1N(C)C(C)=O [Compound I-662, Methyl 2-[acetyl(methyl)amino]-5-[5-(3-pyridylmethylcarbamoyl)-2-pyridyl]benzoate] |
| B (B = ≥33 to <66% inhibition) | 40 |  | CC(=O)N(c1ccc(-c2ccc(C(=O)NCc3cccnc3)cc2)cc1C)C(C)C [Compound I-624, 4-[4-[Acetyl(isopropyl)amino]-3-methyl-phenyl]-N-(3-pyridylmethyl)benzamide] |
| A (A = <33% inhibition) | 341 |  | CC(=O)N(CC1CC1)c1ccc(-c2ccc(C(=O)Nc3ccncc3)cn2)cc1Cl [Compound I-684, 6-[4-[Acetyl(cyclopropylmethyl)amino]-3-chloro-phenyl]-N-(4-pyridyl)pyridine-3-carboxamide] |
| C (C = ≥66% inhibition) | 1.31 |  | CC(=O)N(CC1CC1)c1ccc(-c2ccc(C(=O)Nc3ccc4nccn4c3)cn2)cc1Cl [Compound I-681, 6-[4-[Acetyl(cyclopropylmethyl)amino]-3-chloro-phenyl]-N-imidazo[1,2-a]pyridin-6-yl-pyridine-3-carboxamide] |
| A (A = <33% inhibition) | 2220 |  | CC(=O)N(CC1CC1)c1ccc(-c2ccc(C(=O)NCc3ccc(C)nc3C)cn2)cc1C [Compound I-489, 6-[4-[Acetyl(cyclopropylmethyl)amino]-3-methyl-phenyl]-N-[(2,6-dimethyl-3-pyridyl)methyl]pyridine-3-carboxamide] |
